One assay concerns the target HDAC 1 (Homo sapiens, UniProt Q13547). As to the kind of experiment: HDAC 1 inhibition assay with about 3 hours enzyme/compound preincubation (fluorophore/quencher peptide substrate). The format is biochemical. The conditions noted are these: 3-hour preincubation of enzyme with compound; read-out: HDAC 1 inhibitory activity (IC50 [μM]) (3-hour preincubation). On the procedure:
HDAC inhibitory activity of the compound of Example 1 was measured by two types of assays in which HDAC 1 was used as a target molecule. The first assay was carried out without preincubation after addition of the enzyme. The test compound was suspended in and titrated in dmso. It was then spotted into a 384-well test plate. The enzyme, HDAC 1, was diluted in assay buffer containing 25 mM Tris-HCl (pH 8.0), 137 mM NaCl, 2.7 mM KCl, and 0.01% Tween-20 and added to the pre-spotted compound. The peptide substrate containing a fluorophore/quencher pair was diluted in the same assay buffer and added to the compound/enzyme mix initiating the reaction. The reaction incubated at room temperature for about 45 minutes. A concentrated developer solution was diluted in the assay buffer, and added to the reaction. The reaction was incubated at room temperature for about 15 minutes and relative fluorescence was read on an instrument reader.
The second assay is similar to the first assay described above, except that preincubation is carried out for about 3 hours after the enzyme is introduced. The test compound was suspended in, and titrated in DMSO. It was then spotted into a 384-well test plate. The enzyme, HDAC 1, was diluted in the same assay buffer as used in the previous assay and added to the pre-spotted compound. The enzyme/compound mix was incubated at room temperature for about 3 hours. The peptide substrate containing a fluorophore/quencher pair was diluted in the assay buffer and added to the compound/enzyme mix initiating the reaction. The reaction incubated at room temperature for 45 minutes. A concentrated developer solution was diluted in the assay buffer, and added to the reaction. The reaction was incubated at room temperature for about 15 minutes and relative fluorescence was read on an instrument reader.

Another assay has as its target CDK2 (Homo sapiens, UniProt P24941). As to the kind of experiment: CDK2 inhibition. The format is biochemical.

Where only a bound is given, the exact number is not on record here.

Sequence of HDAC 1 (Q13547 whole entry, species assumed): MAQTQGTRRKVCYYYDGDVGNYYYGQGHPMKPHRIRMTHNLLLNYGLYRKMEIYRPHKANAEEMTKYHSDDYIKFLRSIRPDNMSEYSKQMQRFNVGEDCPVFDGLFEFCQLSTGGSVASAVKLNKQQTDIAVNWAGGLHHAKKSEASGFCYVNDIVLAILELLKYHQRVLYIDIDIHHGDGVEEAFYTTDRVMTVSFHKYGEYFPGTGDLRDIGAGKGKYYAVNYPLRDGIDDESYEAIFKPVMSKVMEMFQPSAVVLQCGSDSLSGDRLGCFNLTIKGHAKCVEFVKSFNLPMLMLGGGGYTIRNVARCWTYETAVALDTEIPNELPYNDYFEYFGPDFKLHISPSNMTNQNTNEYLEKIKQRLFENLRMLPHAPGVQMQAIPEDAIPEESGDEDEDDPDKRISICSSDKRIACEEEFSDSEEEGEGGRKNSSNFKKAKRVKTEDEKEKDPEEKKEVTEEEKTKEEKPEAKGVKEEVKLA

`COc1ccn2c(-c3ccnc(Nc4ccc(C(=O)Nc5ccccc5N)cc4)n3)c(C(F)(F)F)nc2c1` [Example 48, N-(2-Amino-phenyl)-4-[4-(7-methoxy-2-trifluoromethyl-imidazo[1,2-a]pyridin-3-yl)-pyrimidin-2-ylamino]-benzamide]: the figures for the IC50 on HDAC 1 and on CDK2 were 0.06 µM and 0.14 µM, respectively.
In the case of `Cc1nc2ccccn2c1-c1ccnc(Nc2ccc(C(=O)Nc3ccccc3N)cc2)c1` [Example 54, N-(2-Amino-phenyl)-4-[4-(2-methyl-imidazo[1,2-a]pyridin-3-yl)-pyridin-2-ylamino]-benzamide], the IC50 – broadly, the concentration needed to halve the response being measured – at HDAC 1 was found to be 0.053 µM; on CDK2, 13.1 µM.
For `Cc1nc2cc(OCCN(C)C)ccn2c1-c1ccnc(Nc2ccc(C(=O)Nc3ccccc3N)cc2)n1` [Example 30, N-(2-Amino-phenyl)-4-{4-[7-(2-dimethylamino-ethoxy)-2-methyl-imidazo[1,2-a]pyridin-3-yl]-pyrimidin-2-ylamino}-benzamide] the same measures were 0.118 µM and 1.07 µM.
The matching figures for `Cc1nc2cc(C(=O)NCCN3CCOCC3)ccn2c1-c1ccnc(Nc2ccc(C(=O)Nc3ccccc3N)cc2)n1` [Example 25, 3-(2-(4-(2-aminophenylcarbamoyl)phenylamino)pyrimidin-4-yl)-2-methyl-N-(2-morpholinoethyl)imidazo[1,2-a]pyridine-7-carboxamide]: 0.128 µM and 1.03 µM.
Take `O=C(NO)c1ccc(Nc2nccc(-c3cnc4ccccn34)n2)cc1` [Example 5, N-Hydroxy-4-(4-imidazo[1,2-a]pyridin-3-yl-pyrimidin-2-ylamino)-benzamide]: the IC50 stood at 0.02 µM at HDAC 1 and 0.0393 µM on CDK2.
For `Cc1nc2ccccn2c1-c1ccnc(Nc2ccc(C(=O)NO)cc2)c1` [Example 53, N-Hydroxy-4-[4-(2-methyl-imidazo[1,2-a]pyridin-3-yl)-pyridin-2-ylamino]-benzamide], the IC50 is 0.021 µM on HDAC 1 and 3.6 µM on CDK2.
Turning to `Nc1ccccc1NC(=O)c1cccc(Nc2nccc(-c3cnc4ccccn34)n2)c1` [Example 8, N-(2-Amino-phenyl)-3-(4-imidazo[1,2-a]pyridin-3-yl-pyrimidin-2-ylamino)-benzamide], the IC50 at HDAC 1 was greater than 50 µM; on CDK2, 0.144 µM.
The matching figures for `Cc1nc2cc(CN(C)C)ccn2c1-c1ccnc(Nc2ccc(C(=O)Nc3ccccc3N)cc2)n1` [Example 46, N-(2-Amino-phenyl)-4-[4-(7-dimethylaminomethyl-2-methyl-imidazo[1,2-a]pyridin-3-yl)-pyrimidin-2-ylamino]-benzamide]: 0.13 µM and 1.61 µM.
`Cc1nc2ccc(C(=O)N3CCN(C)CC3)cn2c1-c1ccnc(Nc2ccc(C(=O)Nc3ccccc3N)cc2)n1` [Example 39, N-(2-Amino-phenyl)-4-{4-[2-methyl-6-(4-methyl-piperazine-1-carbonyl)-imidazo[1,2-a]pyridin-3-yl]-pyrimidin-2-ylamino}-benzamide]: the IC50 at HDAC 1 was found to be 0.563 µM; at CDK2, 7.94 µM.
For `Cc1nc2c(F)cccn2c1-c1ccnc(Nc2ccc(C(=O)NO)cc2)n1` [Example 44, 4-[4-(8-Fluoro-2-methyl-imidazo[1,2-a]pyridin-3-yl)-pyrimidin-2-ylamino]-N-hydroxy-benzamide] the same measures were 0.251 µM and 0.09 µM.
For `Cc1nc2ccc(C(F)(F)F)cn2c1-c1ccnc(Nc2ccc(C(=O)Nc3ccccc3N)cc2)n1` [Example 12, N-(2-Amino-phenyl)-4-[4-(2-methyl-6-trifluoromethyl-imidazo[1,2-a]pyridin-3-yl)-pyrimidin-2-ylamino]-benzamide], the IC50 is greater than 10 µM at HDAC 1 and 0.32 µM on CDK2.
Regarding `O=C(NO)c1ccc(Nc2nccc(-c3c(C(F)(F)F)nc4ccccn34)n2)cc1` [Example 15, N-Hydroxy-4-[4-(2-trifluoromethyl-imidazo[1,2-a]pyridin-3-yl)-pyrimidin-2-ylamino]-benzamide], the IC50 was 0.0818 µM at HDAC 1 and 0.18 µM against CDK2.

The values above are taken from patent publication US8124764B2, “Fused heterocyclyc inhibitor compounds” (Gilead Sciences, Inc., priority 2008, dated 2012).
